Key:
Cannabinoid receptor 1 [1] = biological target: T1, Cannabinoid receptor 1 (Homo sapiens, UniProt P21554); assay: Inhibition of [3H][…] binding to human cloned CB1 receptor at 10 uM after 120 mins by scintillation spectroscopy
[2] = Metabolic stability in rat liver microsomes assessed as compound remaining at […] after 30 mins; type: ADME, Microsome; conditions: read-out: Stability
Cannabinoid receptor 2 [3] = biological target: T2, Cannabinoid receptor 2 (Homo sapiens, UniProt P34972); assay: Displacement of [3H][…] from human cloned CB2 receptor after 60 mins by scintillation spectroscopy
Cannabinoid receptor 2 [4] = biological target: T3, Cannabinoid receptor 2 (Rattus norvegicus, UniProt Q9QZN9); assay: Agonist activity at CB2 receptor in rat cerebellar membrane assessed as WIN-55212-2-stimulated [35S]GTPgammaS binding after 6 hrs by scintillation spectrometry; type: functional, cell membranes, Cerebellum
T3 sequence (Q9QZN9 whole entry): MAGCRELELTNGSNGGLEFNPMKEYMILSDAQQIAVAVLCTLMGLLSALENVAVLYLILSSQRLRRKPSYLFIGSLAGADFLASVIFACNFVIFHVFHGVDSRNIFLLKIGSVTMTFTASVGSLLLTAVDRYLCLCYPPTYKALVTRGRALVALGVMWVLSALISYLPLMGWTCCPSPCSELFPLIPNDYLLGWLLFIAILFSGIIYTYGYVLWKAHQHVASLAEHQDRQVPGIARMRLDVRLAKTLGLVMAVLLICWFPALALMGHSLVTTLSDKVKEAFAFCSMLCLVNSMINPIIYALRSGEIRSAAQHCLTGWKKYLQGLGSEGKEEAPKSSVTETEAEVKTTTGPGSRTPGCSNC

[5] = Metabolic stability in human liver microsomes assessed as compound remaining at […] after 30 mins; type: ADME, Microsome; conditions: read-out: Stability
Cannabinoid receptor 1 [6] = biological target: T1, Cannabinoid receptor 1; assay: Displacement of [3H][…] from human cloned CB1 receptor after 120 mins by scintillation spectroscopy
Homo sapiens = organism: Homo sapiens; assay: Selectivity ratio of Ki for human cloned CB1 receptor to Ki for human cloned CB2 receptor
[7] = Oral bioavailability in Sprague-Dawley rat at 10 mg/kg administered as single dose; type: ADME, organism-based; conditions: in vivo
[8] = Cmax in Sprague-Dawley rat at 10 mg/kg, po administered as single dose; type: ADME, organism-based; parameters: dose 10 mg/kg, route oral; conditions: in vivo
[9] = Half life in Beagle dog at 10 mg/kg, po administered as single dose; type: ADME, organism-based, Canis lupus familiaris; parameters: dose 10 mg/kg, route oral; conditions: in vivo
Canis familiaris [10] = assay: AUC (0 to infinity) in Beagle dog at 10 mg/kg, po administered as single dose; type: ADME, organism-based, Canis lupus familiaris, Plasma; parameters: time infinity, dose 10 mg/kg, route oral; conditions: in vivo
[11] = Systemic plasma clearance in Beagle dog at 1 mg/kg, iv administered as single dose; type: ADME, organism-based, Canis lupus familiaris; parameters: dose 1 mg/kg, route intravenous
[12] = Volume of distribution at steady state in Beagle dog at 1 mg/kg, iv administered as single dose; type: ADME, organism-based, Canis lupus familiaris; parameters: dose 1 mg/kg, route intravenous; conditions: in vivo, read-out: Vdss
[13] = Half life in Sprague-Dawley rat at 10 mg/kg, po administered as single dose; type: ADME, organism-based; parameters: dose 10 mg/kg, route oral; conditions: in vivo
Rattus norvegicus = assay: Antiallodynic activity against neuropathic pain in L5 spinal nerve ligated rat model assessed as reduction of allodynia at 100 mg/kg, po administered 9 days after surgery relative to control; type: functional; parameters: scale not given: the % may be the effect or the level left
[14] = Half life in Beagle dog at 1 mg/kg, iv administered as single dose; type: ADME, organism-based, Canis lupus familiaris; parameters: dose 1 mg/kg, route intravenous; conditions: in vivo
[15] = AUC (0 to infinity) in Sprague-Dawley rat at 10 mg/kg, po administered as single dose; type: ADME, organism-based; parameters: time infinity, dose 10 mg/kg, route oral; conditions: plasma
[16] = Systemic plasma clearance in Sprague-Dawley rat at 1 mg/kg, iv administered as single dose; type: ADME, organism-based; parameters: dose 1 mg/kg, route intravenous
[17] = Half life in Sprague-Dawley rat at 1 mg/kg, iv administered as single dose; type: ADME, organism-based; parameters: dose 1 mg/kg, route intravenous; conditions: in vivo
[18] = Cmax in Beagle dog at 10 mg/kg, po administered as single dose; type: ADME, organism-based, Canis lupus familiaris; parameters: dose 10 mg/kg, route oral; conditions: in vivo
[19] = Volume of distribution at steady state in Sprague-Dawley rat at 1 mg/kg, iv administered as single dose; type: ADME, organism-based; parameters: dose 1 mg/kg, route intravenous; conditions: in vivo, read-out: Vdss
[20] = Tmax in Sprague-Dawley rat at 10 mg/kg, po administered as single dose; type: ADME, organism-based; parameters: dose 10 mg/kg, route oral; conditions: in vivo
Canis familiaris [21] = assay: Oral bioavailability in Beagle dog at 10 mg/kg, po administered as single dose; type: ADME, organism-based, Canis lupus familiaris; conditions: in vivo
[22] = AUC (0 to infinity) in Sprague-Dawley rat at 1 mg/kg, iv administered as single dose; type: ADME, organism-based; parameters: time infinity, dose 1 mg/kg, route intravenous; conditions: plasma
[23] = Tmax in Beagle dog at 10 mg/kg, po administered as single dose; type: ADME, organism-based, Canis lupus familiaris; parameters: dose 10 mg/kg, route oral; conditions: in vivo
Canis familiaris [24] = assay: Area under curve (0 to infinity) in Beagle dog at 1 mg/kg, iv administered as single dose; type: ADME, organism-based, Canis lupus familiaris; parameters: time infinity, dose 1 mg/kg, route intravenous; conditions: in vivo
Cannabinoid receptor 2 [25] = biological target: T2, Cannabinoid receptor 2; assay: Inhibition of [3H][…] binding to human cloned CB2 receptor at 10 uM after 60 mins by scintillation spectroscopy

T1 sequence (P21554 whole entry): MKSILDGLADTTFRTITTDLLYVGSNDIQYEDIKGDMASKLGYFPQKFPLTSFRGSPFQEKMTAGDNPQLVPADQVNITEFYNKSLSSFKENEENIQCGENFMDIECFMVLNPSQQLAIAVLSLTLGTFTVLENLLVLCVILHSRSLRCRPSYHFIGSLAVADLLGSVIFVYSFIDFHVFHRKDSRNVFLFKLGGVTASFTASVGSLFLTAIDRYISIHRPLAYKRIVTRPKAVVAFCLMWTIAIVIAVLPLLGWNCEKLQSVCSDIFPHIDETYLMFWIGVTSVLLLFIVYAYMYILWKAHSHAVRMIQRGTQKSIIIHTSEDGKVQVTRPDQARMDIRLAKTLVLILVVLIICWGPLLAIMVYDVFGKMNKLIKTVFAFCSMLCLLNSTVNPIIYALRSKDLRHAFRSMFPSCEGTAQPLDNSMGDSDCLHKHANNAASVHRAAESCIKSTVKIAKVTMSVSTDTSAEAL
T2 sequence (P34972 whole entry): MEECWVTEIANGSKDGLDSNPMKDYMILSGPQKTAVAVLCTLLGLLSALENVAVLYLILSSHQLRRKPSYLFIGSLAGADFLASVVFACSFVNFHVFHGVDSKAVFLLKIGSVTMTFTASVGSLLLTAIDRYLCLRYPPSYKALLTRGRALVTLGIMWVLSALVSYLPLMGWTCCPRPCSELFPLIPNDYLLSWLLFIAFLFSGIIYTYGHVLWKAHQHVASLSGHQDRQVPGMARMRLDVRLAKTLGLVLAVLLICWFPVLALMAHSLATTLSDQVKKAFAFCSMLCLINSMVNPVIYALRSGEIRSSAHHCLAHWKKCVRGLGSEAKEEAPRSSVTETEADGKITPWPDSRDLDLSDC

| Structure (SMILES) | inhibition (Cannabinoid receptor 1 [1]) | remaining at 0.5 h [2] | Ki (Cannabinoid receptor 2 [3]) | EC50 (Cannabinoid receptor 2 [4]) | remaining at 0.5 h [5] | Ki (Cannabinoid receptor 1 [6]) | Ratio Ki (Homo sapiens) | also measured |
| --- | --- | --- | --- | --- | --- | --- | --- | --- |
| CCC(C)(C)C(=O)Nc1cc(CN2CCOCC2)c(C)cc1C | 18% | 68% |  |  |  |  |  |  |
| Cc1cnc(NC(=O)C(C)(C)C)cc1CN1CCOCC1 | 37% |  | 81 nM | 70 nM |  |  |  |  |
| CCC(C)(C)C(=O)Nc1cc(CN2CCOCC2)cc(C)n1 | 0% |  | 67 nM | 260 nM |  |  |  |  |
| CCC1(C(=O)Nc2cc(CN3CCOCC3)c(C)cn2)CCCCC1 | 36% | 0% | 7 nM | 8.8 nM | 0% |  |  |  |
| CCC(C)(C)C(=O)Nc1ccc(C)c(CN2CCOCC2)c1 | 4% | 2.2% |  |  |  |  |  |  |
| CCc1cnc(NC(=O)C(C)(C)CC)cc1CN1CCOCC1 |  | 29% | 7.9 nM | 9.6 nM | 34% | 4300 nM | 550 |  |
| CCCC(C)(C)C(=O)Nc1cc(CN2CCOCC2)c(C)cn1 |  |  | 5.3 nM | 4.1 nM | 15% | 1800 nM | 330 |  |
| CCC1(C(=O)Nc2cc(CN3CCOCC3)c(C)cn2)CCCC1 |  |  | 13 nM | 13 nM | 12% | 1100 nM | 85 |  |
| CCC(C)(C)C(=O)Nc1cc(CN2CCOCC2)c(C)cn1 |  | 43% | 24 nM | 41 nM | 64% | 3800 nM | 160 | bioavailability [7]: 57%; Cmax [8]: 185 ng/mL; half-life [9]: 1.1 h; AUC (Canis familiaris [10]): 977 ng·h/mL; clearance [11]: 15 mL/min/kg; Vd [12]: 0.6 L/kg; half-life [13]: 2.1 h; Activity (Rattus norvegicus): 271%; half-life [14]: 1.4 h; AUC(0-inf) [15]: 893 ng·h/mL; clearance [16]: 96.7 mL/min/kg; half-life [17]: 0.5 h; Cmax [18]: 535 ng/mL; Vd [19]: 3.5 L/kg; Tmax [20]: 2 h; F (Canis familiaris [21]): 29%; AUC(0-inf) [22]: 158 ng·h/mL; Tmax [23]: 0.5 h; AUC (Canis familiaris [24]): 1127 ng·h/mL |
| Cc1cnc(NC(=O)C2(C)CCCCC2C)cc1CN1CCOCC1 (centres undefined) |  | 0% | 1.9 nM | 2.8 nM | 1% | 2500 nM | 1300 |  |
| CCC(C)(C)C(=O)Nc1cc(CN2CCOCC2)c(N)cn1 | 10% |  | 870 nM |  |  |  |  |  |
| CCC1(C(=O)Nc2cc(CN3CCOCC3)c(C)cn2)CC1 | 25% |  | 63 nM | 62 nM |  |  |  |  |
| CCC(C)(C)C(=O)Nc1ccc(C)c(CN2CCOCC2)n1 | 28% |  | 1800 nM |  |  |  |  |  |
| CCC(C)(C)C(=O)Nc1cc(CN2CCOCC2)c(C#N)cn1 | 11% |  | 100 nM | 200 nM |  |  |  |  |
| CCC1(C(=O)Nc2cc(CN3CCOCC3)c(C)cn2)CCC1 | 13% | 48% | 45 nM | 140 nM | 51% |  |  |  |
| CCC(C)(C)C(=O)Nc1cnc(C)c(CN2CCOCC2)c1 | 4% |  |  |  |  |  |  | inhibition (Cannabinoid receptor 2 [25]): 46% |

Source: ChEMBL document CHEMBL1156044, “Novel pyridine derivatives as potent and selective CB2 cannabinoid receptor agonists” (Bioorg Med Chem Lett, 2009)
